Earlier results, collected in PubChem BioAssay AID1259409 (Chemical Carcinogenesis Research Information System (CCRIS), 2018).

System: rodent chemically induced tumor inhibition, incidence and multiplicity
Test: CCRIS tumor inhibitor studies
Conditions: for tumour outcome (control, treated, inhibition, significance): Route [Inhibitor]: ORAL; for outcome: Carcinogen: N,N-Diethylnitrosamine, Route [Inhibitor]: Intravenous, Species: Rat, Strain/Sex: Swiss-Albino/Male, Target Tissue: Type of Lesion: Liver: preneoplastic lesions, Promoter: None

Compound: O=c1c(O)c(-c2ccc(O)c(O)c2)oc2cc(O)cc(O)c12
- tumour outcome (control, treated, inhibition, significance) (Carcinogen: DIETHYLNITROSAMINE, 55-18-5, N-METHYLNITROSOUREA, 684-93-5, 1,2-DIMETHYLHYDRAZINE, 540-73-8, N-BUTYL-N-(4-HYDROXYB, Carcinogen: DIETHYLNITROSAMINE, 55-18-5, N-METHYLNITROSOUREA, 684-93-5, 1,2-DIMETHYLHYDRAZINE, 540-73-8, N-BUTYL-N-(4-HYDROXYB, Dose [Inhibitor]: 0, 1% IN DIET FOR 32 WK BEGINNING POST CARCINOGEN TREATMENT (STUDY DURATION: 36 WK), Species: RAT, Strain/Sex: F344/MALE, Target Tissue: Type of Lesion: SMALL INTESTINE: ADENOMA, Dose [Carcinogen]: 100 MG/KG DEN ONCE, 20 MG/KG MNU 4 TIMES, 40 MG/KG DMH 4 TIMES, 0.05% BBN IN DRINKING WATER FOR 2 WK, 0.1% DHPN IN D, Dose [Carcinogen]: 100 MG/KG DEN ONCE, 20 MG/KG MNU 4 TIMES, 40 MG/KG DMH 4 TIMES, 0.05% BBN IN DRINKING WATER FOR 2 WK, 0.1% DHPN IN D, Promoter: NONE USED): 6/14 (43%), 0/12 (0%), 100%, p<0.05
- tumour outcome (control, treated, inhibition, significance) (Carcinogen: DIETHYLNITROSAMINE, 55-18-5, N-METHYLNITROSOUREA, 684-93-5, 1,2-DIMETHYLHYDRAZINE, 540-73-8, N-BUTYL-N-(4-HYDROXYB, Carcinogen: DIETHYLNITROSAMINE, 55-18-5, N-METHYLNITROSOUREA, 684-93-5, 1,2-DIMETHYLHYDRAZINE, 540-73-8, N-BUTYL-N-(4-HYDROXYB, Dose [Inhibitor]: 0, 1% IN DIET FOR 32 WK BEGINNING POST CARCINOGEN TREATMENT (STUDY DURATION: 36 WK), Species: RAT, Strain/Sex: F344/MALE, Target Tissue: Type of Lesion: SMALL INTESTINE: CARCINOMA, Dose [Carcinogen]: 100 MG/KG DEN ONCE, 20 MG/KG MNU 4 TIMES, 40 MG/KG DMH 4 TIMES, 0.05% BBN IN DRINKING WATER FOR 2 WK, 0.1% DHPN IN D, Dose [Carcinogen]: 100 MG/KG DEN ONCE, 20 MG/KG MNU 4 TIMES, 40 MG/KG DMH 4 TIMES, 0.05% BBN IN DRINKING WATER FOR 2 WK, 0.1% DHPN IN D, Promoter: NONE USED): 5/14 (36%), 0/12 (0%), 100%, p<0.05
- tumour outcome (control, treated, inhibition, significance) (Carcinogen: DIETHYLNITROSAMINE, 55-18-5, N-METHYLNITROSOUREA, 684-93-5, 1,2-DIMETHYLHYDRAZINE, 540-73-8, N-BUTYL-N-(4-HYDROXYBU, Carcinogen: DIETHYLNITROSAMINE, 55-18-5, N-METHYLNITROSOUREA, 684-93-5, 1,2-DIMETHYLHYDRAZINE, 540-73-8, N-BUTYL-N-(4-HYDROXYBU, Dose [Inhibitor]: 0, 1% IN DIET FOR 32 WK BEGINNING POST CARCINOGEN TREATMENT (STUDY DURATION: 36 WK), Species: RAT, Strain/Sex: F344/MALE, Target Tissue: Type of Lesion: LARGE INTESTINE: ADENOMA, Dose [Carcinogen]: 100 MG/KG DEN ONCE, 20 MG/KG MNU 4 TIMES, 40 MG/KG DMH 4 TIMES, 0.05% BBN IN DRINKING WATER FOR 2 WK, 0.1% DHPN IN D, Dose [Carcinogen]: 100 MG/KG DEN ONCE, 20 MG/KG MNU 4 TIMES, 40 MG/KG DMH 4 TIMES, 0.05% BBN IN DRINKING WATER FOR 2 WK, 0.1% DHPN IN D, Promoter: NONE USED): 7/14 (50%), 3/12 (25%), 50%, not significant
- tumour outcome (control, treated, inhibition, significance) (Carcinogen: DIETHYLNITROSAMINE, 55-18-5, N-METHYLNITROSOUREA, 684-93-5, 1,2-DIMETHYLHYDRAZINE, 540-73-8, N-BUTYL-N-(4-HYDROXYBU, Carcinogen: DIETHYLNITROSAMINE, 55-18-5, N-METHYLNITROSOUREA, 684-93-5, 1,2-DIMETHYLHYDRAZINE, 540-73-8, N-BUTYL-N-(4-HYDROXYBU, Dose [Inhibitor]: 0, 1% IN DIET FOR 32 WK BEGINNING POST CARCINOGEN TREATMENT (STUDY DURATION: 36 WK), Species: RAT, Strain/Sex: F344/MALE, Target Tissue: Type of Lesion: LUNG: ADENOMA, Dose [Carcinogen]: 100 MG/KG DEN ONCE, 20 MG/KG MNU 4 TIMES, 40 MG/KG DMH 4 TIMES, 0.05% BBN IN DRINKING WATER FOR 2 WK, 0.1% DHPN IN D, Dose [Carcinogen]: 100 MG/KG DEN ONCE, 20 MG/KG MNU 4 TIMES, 40 MG/KG DMH 4 TIMES, 0.05% BBN IN DRINKING WATER FOR 2 WK, 0.1% DHPN IN D, Promoter: NONE USED): 6/14 (43%), 3/12 (25%), 42%, not significant
- outcome (55-18-5, Dose [Inhibitor]: 0.5 ml suspension of 0.2% tween 80 aqueous soln with 0.898 mM quercetin once a wk for 16 wk, Dose [Carcinogen]: 200 mg/kg bw in 0.5 ml olive oil three times at 15 day intervals beginning on wk 1): 1205+/-102, 1111+/-56, not significant
- outcome (55-18-5, Dose [Inhibitor]: 0.5 ml suspension of galactosylated liposomal quercitin, 0.898 mM, once a wk for 16 wk, study duration 18 wk, Dose [Carcinogen]: 200 mg/kg bw in 0.5 ml olive oil three times at end of 1st, 3rd and 5th wk, study duration 18 wk): 1205+/-102, 361+/-22, significant
- outcome (55-18-5, Dose [Inhibitor]: 0.5 ml suspension of liposomal quercitin, 0.898 mM, once a wk for 16 wk, study duration 18 wk, Dose [Carcinogen]: 200 mg/kg bw in 0.5 ml olive oil three times at end of 1st, 3rd and 5th wk, study duration 18 wk): 1205+/-102, 861+/-81, significant
- tumour outcome (control, treated, inhibition, significance) (Carcinogen: N-BUTYL-N-(4-HYDROXYBUTYL)NITROSAMINE, 3817-11-6, Dose [Inhibitor]: 5% DIET DAILY FOR 34 WK STARTING AT COMPLETION OF CARCINOGEN TREATMENT (STUDY DURATION: 38 WK), Species: RAT, Strain/Sex: F344/MALE, Target Tissue: Type of Lesion: URINARY BLADDER: PAPILLOMA, Dose [Carcinogen]: 0.01% IN DRINKING WATER FOR 4 WK, Promoter: NONE USED): 33%, 17%, 48%, not significant
- tumour outcome (control, treated, inhibition, significance) (Carcinogen: N-NITROSODIETHYLAMINE, 55-18-5, 2-ACETYLAMINOFLUORENE, 53-93-6, CARBON TETRACHLORIDE, 56-23-5, Carcinogen: N-NITROSODIETHYLAMINE, 55-18-5, 2-ACETYLAMINOFLUORENE, 53-93-6, CARBON TETRACHLORIDE, 56-23-5, Dose [Inhibitor]: 0, 1.5% IN DIET FOR 29 WK ADMINISTERED TO RATS BEARING PERSISTENT NODULES FOLLOWING CARCINOGEN TREATMENT (STUDY DURATION, Species: RAT, Strain/Sex: F344/MALE, Target Tissue: Type of Lesion: LIVER: HEPATOCELLULAR CARCINOMA, Dose [Carcinogen]: 200 MG/KG BW DEN ONCE, 0.002% 2-AAF IN DIET FOR 2 WK, 1 MG/KG BW CCL4 MIDWAY IN 2-AAF TREATMENT, Dose [Carcinogen]: 200 MG/KG BW DEN ONCE, 0.002% 2-AAF IN DIET FOR 2 WK, 1 MG/KG BW CCL4 MIDWAY IN 2-AAF TREATMENT, Promoter: NONE USED): 7/8 (88%), 7/11 (64%), 27%, not significant
- tumour outcome (control, treated, inhibition, significance) (Carcinogen: N-NITROSODIETHYLAMINE, 55-18-5, 2-ACETYLAMINOFLUORENE, 53-93-6, CARBON TETRACHLORIDE, 56-23-5, Carcinogen: N-NITROSODIETHYLAMINE, 55-18-5, 2-ACETYLAMINOFLUORENE, 53-93-6, CARBON TETRACHLORIDE, 56-23-5, Dose [Inhibitor]: 0, 1.5% IN DIET FOR 29 WK ADMINISTERED TO RATS BEARING PERSISTENT NODULES FOLLOWING CARCINOGEN TREATMENT (STUDY DURATION, Species: RAT, Strain/Sex: F344/MALE, Target Tissue: Type of Lesion: LIVER: HEPATOCELLULAR CARCINOMA, Dose [Carcinogen]: 200 MG/KG BW DEN ONCE, 0.002% 2-AAF IN DIET FOR 2 WK, 1 ML/KG BW CCL4 MIDWAY IN 2-AAF TREATMENT, Dose [Carcinogen]: 200 MG/KG BW DEN ONCE, 0.002% 2-AAF IN DIET FOR 2 WK, 1 ML/KG BW CCL4 MIDWAY IN 2-AAF TREATMENT, Promoter: PHENOBARBITAL, 50-06-6): 12/12 (100%), 13/14 (93%), 7%, not significant
- tumour outcome (control, treated, inhibition, significance) (Carcinogen: N-NITROSOMETHYLUREA, 684-93-5, Dose [Inhibitor]: 5.0% IN DIET BEGINNING 1 WK PRIOR TO CARCINOGEN DOSE AND CONTINUING FOR DURATION OF STUDY (STUDY DURATION: 21 WK), Species: RAT, Strain/Sex: SPRAGUE-DAWLEY/FEMALE, Target Tissue: Type of Lesion: MAMMARY GLAND: TUMOR, Dose [Carcinogen]: 50 MG/KG BW IN 0.9% SALINE AND 5% ACETIC ACID STABILIZER ONCE, Promoter: NONE USED): 78%, 70%, 10%, not calculated
- tumour outcome (control, treated, inhibition, significance) (Dose [Inhibitor]: 0, 2000 PPM IN DIET BEGINNING 8 WK PRIOR TO CARCINOGEN AND CONTINUING FOR 6 WK POST CARCINOGEN (STUDY DURATION: 68 WK), Species: FISH, Strain/Sex: RAINBOW TROUT, Target Tissue: Type of Lesion: LIVER: HEPATOCELLULAR CARCINOMA, Dose [Carcinogen]: 20 PPB IN DIET FOR 2 WK, Promoter: NONE USED): 43/118 (36%), 30/115 (26%), 27%, not significant
